Results on 1 compound are retold here after patent US11944623B2, “Modulators of Kv3 channels to treat pain” (Autifony Therapeutics Limited, priority 2015, dated 2024).

The target of data set [1] is T1, Human Nav1.7 channels (Homo sapiens, UniProt Q15858).
T1 construct: expressed in transfected cells
Briefly: Nav1.7 QPatch assay. Conditions: 10 µM concentration (N=3). The data set is classed as cell-based. Here is the method: Human Nav1.7 channels were stably expressed in a HEK293 cell line. Electrophysiological recordings were made at room temperature using an automated patch clamp platform (QPatch, Sophion Biosciences).
The QPatch assay was carried out at room temperature using the QPatch platform (Sophion). On the day of the experiment cells were cultured according to standard cell preparation for QPatch. Internal and external physiological solutions were freshly prepared prior to the assay. The standard extracellular solution contained 145 mM NaCl, 4 mM KCl, 2 mM CaCl2, 2 mM MgCl2, 10 mM HEPES and 10 mM glucose; the pH was adjusted to 7.4 with NaOH, and the osmolarity measured as 314mOsm/L. The standard intracellular solution contained 140 mM CsF, 10 mM NaCl, 5 mM CsOH, 1 mM EGTA, 10 mM HEPES; the pH was adjusted to 7.25 with CsOH, and the osmolarity measured as 293mOsm/L.
A series of 40 voltage pulses (from −120 mV to 0 mV, 2.4 ms long at 117 Hz) were applied every 60 s in control (twice), compound (five times), standard blocker (twice) and washout (twice). The % inhibition values were calculated by normalising the data relative to the 1st pulse (P1) and by calculating the ratio between the 40th pulse versus the 1st pulse (P40/1). Series resistance and quality of seals were monitored during the experiments. Sophion QPatch Assay Software 5.0 was used to analyse and plot all the graphs. 10 μM of the test compound was applied followed by 1 μM TTX (standard blocker), followed by saline (washout). Compounds were diluted in physiological solutions at the required concentration with a maximum of 0.1% of DMSO.

For data set [2], the target named is T2, human BK (hKCa1.1/β1) potassium channel (Homo sapiens, UniProt Q12791).
T2 construct: expressed in transfected cells; host or cells: CHO cell line
T2 sequence (Q12791 whole entry): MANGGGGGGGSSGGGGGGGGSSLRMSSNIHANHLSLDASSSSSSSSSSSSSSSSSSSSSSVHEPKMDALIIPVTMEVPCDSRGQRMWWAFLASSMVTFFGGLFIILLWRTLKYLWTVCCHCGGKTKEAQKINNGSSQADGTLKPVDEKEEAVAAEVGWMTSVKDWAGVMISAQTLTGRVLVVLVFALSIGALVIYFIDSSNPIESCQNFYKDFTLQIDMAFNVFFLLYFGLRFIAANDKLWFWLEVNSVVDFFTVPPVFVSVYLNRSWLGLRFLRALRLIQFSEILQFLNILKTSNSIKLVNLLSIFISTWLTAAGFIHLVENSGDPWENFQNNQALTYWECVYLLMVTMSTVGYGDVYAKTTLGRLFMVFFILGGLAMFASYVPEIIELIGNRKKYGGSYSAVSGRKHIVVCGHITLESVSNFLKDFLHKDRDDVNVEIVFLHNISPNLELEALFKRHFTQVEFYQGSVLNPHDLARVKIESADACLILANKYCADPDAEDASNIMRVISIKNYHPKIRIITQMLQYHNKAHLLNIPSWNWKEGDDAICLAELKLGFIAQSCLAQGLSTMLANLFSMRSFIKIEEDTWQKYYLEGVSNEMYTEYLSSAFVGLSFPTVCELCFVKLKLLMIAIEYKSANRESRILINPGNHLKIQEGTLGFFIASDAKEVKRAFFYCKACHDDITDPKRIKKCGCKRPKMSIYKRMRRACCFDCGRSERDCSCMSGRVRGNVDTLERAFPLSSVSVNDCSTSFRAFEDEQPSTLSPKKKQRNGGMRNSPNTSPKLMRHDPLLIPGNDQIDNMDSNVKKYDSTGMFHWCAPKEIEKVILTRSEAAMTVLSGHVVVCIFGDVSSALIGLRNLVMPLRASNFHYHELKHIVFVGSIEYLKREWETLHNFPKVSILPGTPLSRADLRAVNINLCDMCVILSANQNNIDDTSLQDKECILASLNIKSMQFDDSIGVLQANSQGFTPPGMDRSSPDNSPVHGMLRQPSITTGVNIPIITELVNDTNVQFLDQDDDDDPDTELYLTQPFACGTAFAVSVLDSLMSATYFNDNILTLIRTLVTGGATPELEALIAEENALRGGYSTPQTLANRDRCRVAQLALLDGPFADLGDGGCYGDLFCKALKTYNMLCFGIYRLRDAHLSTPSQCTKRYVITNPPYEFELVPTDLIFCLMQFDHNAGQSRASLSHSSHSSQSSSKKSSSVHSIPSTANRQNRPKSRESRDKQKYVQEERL
T2 sequence (Q16558 whole entry partner): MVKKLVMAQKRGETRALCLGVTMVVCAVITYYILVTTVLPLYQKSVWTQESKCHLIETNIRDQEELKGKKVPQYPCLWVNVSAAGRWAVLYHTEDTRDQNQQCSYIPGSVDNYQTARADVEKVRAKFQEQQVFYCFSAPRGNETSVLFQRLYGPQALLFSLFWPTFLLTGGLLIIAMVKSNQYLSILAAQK
Put plainly: BK QPatch HT assay. Format: cell-based. Conditions: 10 µM concentration (N=3). Here is the method:
The effects of compounds on cloned human BK (hKCa1.1/β1) potassium channel (encoded by the human KCNMA1 and KCNMB1 genes) were examined in a CHO cell line using a QPatch HT® (Sophion Bioscience A/S, Denmark) assay. Onset and steady-state inhibition of hBK currents were measured using a voltage pulse pattern with a depolarizing test pulse (+100 mV amplitude, 200 ms duration) at 10 s intervals from a holding potential of −80 mV. The peak amplitude of the delayed outward current was measured for each test pulse. The compounds were evaluated at 10 μM in three cells for each compound, after a 3 minute compound application. The steady state inhibition produced by each compound was calculated.

Data set [3] concerns rat model of persistent inflammatory pain. Put plainly: Persistent inflammatory pain model (intraplantar FCA): paw withdrawal to mechanical pressure and cold (10° C.), general observations. The data set is classed as in vivo. The conditions noted are these: for rats more alert and more vocal than fellow cage-mates: 1-6 h post-dose. Here is the method:
(§1) The efficacy of Compounds 1, 2, 3 and 4 was investigated using rat models of neuropathic and/or persistent inflammatory pain.
(§2) Subjects comprised male, Wistar Hanover rats, 6 animals per group (225±2 g for Compound 1 studies and Compound 2 studies; 214±1 g for Compound 3 studies; 236±1 g for Compound 4 studies).
(§3) Vehicle (12% Captisol®; 0.5% w/v HPMC and 0.1% w/v Tween-80; 5 ml/kg via the intraperitoneal route) was prepared using autoclaved deionized water not more than one week prior to use.
(§4) The details of the studies performed are outlined in Table 1.
(§5) The control for the neuropathic pain model was lamotrigine, administered at 30 mg/kg via oral delivery. The control for the inflammatory pain model was diclofenac, administered at 30 mg/kg via oral delivery. Statistical analysis was performed using one-way ANOVA, and comparisons were performed with time-matched vehicle group using Tukey's HSD test wherein * p<0.05, ** p<0.01, *** p<0.001.
(§6) Treatment groups were randomised and blinded. Groups of 6 rats were used.
Mechanical hyperalgesia was examined in a model of persistent inflammatory pain. The hyperalgesia was induced by an intraplantar injection (25 μl) of Freund's Complete Adjuvant (FCA) into the left hind paw.
To assess the effect of the test compound, paw withdrawal thresholds or latencies were measured on both the ipsilateral (FCA-injected) and contralateral (non-injected) paws, prior to (naïve) and 24 hours following FCA injection (predose), and then at 1, 3, 6 and 24 hours after drug or vehicle administration.
(§7) Mechanical hyperalgesia was examined in a model of neuropathic pain by measuring paw withdrawal thresholds (PWT) to increasing mechanical force applied to the dorsal surface of the rat paw using an Analgesymeter (Ugo-Basile, Milan) equipped with a wedge-shaped probe (area 1.75 mm^2). Cut-off was set at 250 g and the end-point was taken as withdrawal of the hind paw. Both ipsilateral and contralateral paw withdrawal readings were taken.
(§8) Cold sensitivity was assessed using a commercially available cold-plate (Ugo Basile, Milan). The cold plate was allowed to stabilize for 5 minutes at the set temperature prior to testing. Paw withdrawal latencies (PWL) were determined with the cold-plate set at 10° C. The animals were lightly restrained and each hind paw in turn placed onto the surface of the cold-plate. The end point was taken as the withdrawal of the paw and recorded as the withdrawal latency for the ipsilateral and the contralateral paw. A maximum cut-off of 30 seconds was used for each paw.
(§9) In addition to behavioural pain readings, each rat was observed throughout the study for changes in general behaviour.
(§10) Data were expressed as withdrawal threshold (g) or withdrawal latencies (s) and percentage reversals calculated according to the following formula: […]
(§11) Statistical analysis was carried out on withdrawal threshold readings using ANOVA with repeated measures followed by Tukey's HSD test. The level for statistical significance was set as p<0.05.

The subject of data set [4] is rat model of neuropathic pain. Briefly: Neuropathic pain model (partial ligation of the sciatic nerve): paw withdrawal to mechanical pressure and cold (10° C.), general observations. The data set is classed as in vivo. Here is the method: as §1, §2, §3, §4, §5, §6
Neuropathic pain was induced by partial ligation of the sciatic nerve. Briefly, the rats were anaesthetised (isoflurane/O2 inhalation), the left sciatic nerve exposed at mid-thigh level through a small incision and ⅓ to ½ of the nerve thickness tightly ligated within a 7.0 silk suture. The wound was closed with surgical glue. Animals were allowed to recover and tested 12-15 days following surgery.
Withdrawal thresholds or latencies were measured on both the ipsilateral (ligated) and contralateral (non-ligated) paws, prior to (predose) and then up to 24 h following drug or vehicle administration.
Pre-dose behavioural measurements were obtained by measuring paw withdrawals 14 days following nerve ligation; before the initiation of drug treatment. Following treatment, further readings were taken at 1, 3, 6 and 24 hour after administration.
as §7, §8, §9, §10, §11

Setting [5] is: 60 mg/kg i.p., 3 hours post-dose.
[6] abbreviates: Study 1 of each compound (Table 1), 60 mg/kg i.p., 3 hours post-dose.

SMILES strings stand for the structures.

T1 sequence (Q15858 whole entry): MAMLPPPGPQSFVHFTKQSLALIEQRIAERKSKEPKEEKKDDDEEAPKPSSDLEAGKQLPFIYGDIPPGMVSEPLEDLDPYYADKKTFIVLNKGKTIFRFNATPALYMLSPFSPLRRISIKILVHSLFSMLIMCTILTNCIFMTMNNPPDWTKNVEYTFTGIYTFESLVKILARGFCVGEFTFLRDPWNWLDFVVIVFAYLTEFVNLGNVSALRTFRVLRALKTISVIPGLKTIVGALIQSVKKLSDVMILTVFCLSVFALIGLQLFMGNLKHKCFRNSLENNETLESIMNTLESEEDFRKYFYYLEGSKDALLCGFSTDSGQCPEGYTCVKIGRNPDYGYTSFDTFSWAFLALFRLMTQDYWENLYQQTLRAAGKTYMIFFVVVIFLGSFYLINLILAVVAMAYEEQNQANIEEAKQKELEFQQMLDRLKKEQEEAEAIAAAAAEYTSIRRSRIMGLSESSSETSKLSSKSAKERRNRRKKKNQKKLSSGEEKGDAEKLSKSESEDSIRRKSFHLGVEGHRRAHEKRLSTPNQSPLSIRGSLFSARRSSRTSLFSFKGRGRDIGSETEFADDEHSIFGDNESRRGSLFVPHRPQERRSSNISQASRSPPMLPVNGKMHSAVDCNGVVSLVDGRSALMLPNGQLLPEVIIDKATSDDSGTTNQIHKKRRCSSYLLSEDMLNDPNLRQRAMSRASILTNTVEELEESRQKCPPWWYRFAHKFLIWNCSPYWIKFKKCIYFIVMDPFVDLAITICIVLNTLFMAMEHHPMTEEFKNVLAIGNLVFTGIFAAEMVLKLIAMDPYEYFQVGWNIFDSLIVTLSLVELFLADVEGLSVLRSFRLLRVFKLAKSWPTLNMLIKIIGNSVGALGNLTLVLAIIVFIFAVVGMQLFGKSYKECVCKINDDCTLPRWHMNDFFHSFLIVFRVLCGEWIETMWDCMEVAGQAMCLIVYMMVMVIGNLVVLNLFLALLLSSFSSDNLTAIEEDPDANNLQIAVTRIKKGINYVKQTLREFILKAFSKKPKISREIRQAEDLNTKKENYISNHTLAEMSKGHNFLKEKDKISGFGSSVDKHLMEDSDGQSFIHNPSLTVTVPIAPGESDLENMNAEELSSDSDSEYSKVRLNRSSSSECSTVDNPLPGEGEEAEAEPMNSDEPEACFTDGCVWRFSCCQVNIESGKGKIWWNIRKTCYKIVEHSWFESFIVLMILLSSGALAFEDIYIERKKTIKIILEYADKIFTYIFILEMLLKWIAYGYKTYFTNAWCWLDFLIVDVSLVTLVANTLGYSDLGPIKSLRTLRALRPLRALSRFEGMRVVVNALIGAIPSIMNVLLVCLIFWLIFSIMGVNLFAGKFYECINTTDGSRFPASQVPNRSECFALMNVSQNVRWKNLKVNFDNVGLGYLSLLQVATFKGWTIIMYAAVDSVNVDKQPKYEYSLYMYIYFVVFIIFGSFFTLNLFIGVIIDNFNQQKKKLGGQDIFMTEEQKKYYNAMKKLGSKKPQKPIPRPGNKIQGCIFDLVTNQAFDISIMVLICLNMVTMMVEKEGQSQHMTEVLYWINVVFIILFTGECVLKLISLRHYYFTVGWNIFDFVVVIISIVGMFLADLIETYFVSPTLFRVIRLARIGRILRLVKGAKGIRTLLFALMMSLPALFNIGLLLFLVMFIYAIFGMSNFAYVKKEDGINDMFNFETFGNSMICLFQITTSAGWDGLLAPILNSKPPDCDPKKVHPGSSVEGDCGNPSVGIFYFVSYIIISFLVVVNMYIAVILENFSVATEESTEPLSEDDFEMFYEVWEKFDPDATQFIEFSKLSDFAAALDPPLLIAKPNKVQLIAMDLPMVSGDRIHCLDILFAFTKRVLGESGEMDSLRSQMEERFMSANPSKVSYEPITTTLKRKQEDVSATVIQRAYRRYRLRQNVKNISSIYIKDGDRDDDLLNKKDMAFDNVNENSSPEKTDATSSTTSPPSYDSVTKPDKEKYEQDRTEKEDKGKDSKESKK

With `Cc1ccc(Oc2ccc(-n3c(C)n[nH]c3=O)cn2)c2c1OCC21CC1` [Compound 3, 5-methyl-4-{6-[(7-methylspiro[1-benzofuran-3,1′-cyclopropan]-4-yl)oxy]pyridin-3-yl}-2,4-dihydro-3H-1,2,4-triazol-3-one], in data set [1], the “effect on Nav1.7-mediated currents” value is recorded as “No significant effect”. Besides, in data set [2], the “effect on BK channel currents” value is “No significant effect”. For the same compound, the “rats more alert and more vocal than fellow cage-mates” value in data set [3] (30 mg/kg group) is reported as 4/6; in data set [3] (60 mg/kg group), 1/6. In addition, the “reversal of cold sensitivity” value in data set [3] (setting [5]) was found to be 51%; in data set [4] (setting [6]), 52%. The figures for the “reversal of mechanical sensitivity” value in data set [3] (setting [5]) and in data set [4] (setting [6]) were 67% and 46%, respectively. The “doses producing a reversal of mechanical or cold sensitivity” value in data set [3] (10, 30 and 60 mg/kg i.p. tested) is “Only the top dose”. Moreover, in data set [3] (1 hour post-dose), the “reversal at 1 hour post-dose” value is “little reversal evident”. Further, the “activity at 6 hours post-dose” value in data set [3] (6 hours post-dose) is on record as “activity still evident”. Moreover, the “changes in contralateral paw withdrawals/latencies” value in data set [3] (all doses) is given as “no significant changes”; in data set [4] (Compound 3 neuropathic study, 30 and 60 mg/kg i.p.) it was “no significant changes”. In addition, in data set [4] (Compound 3 neuropathic study, 60 mg/kg i.p.), the “statistical significance against mechanical and cold hyperalgesia” value is “attained statistical significance”. Further, in data set [4] (Study 1 of each compound), the “behavioural changes in the rats (general observations)” value was “no behavioural changes noted”. Further, the “efficacy at 6 hours post-dose” value in data set [4] (Study 1 of each compound, 60 mg/kg i.p., 6 hours post-dose) is recorded as “activity was still evident”.
